Data reported in patent US10906930B2, “Compositions and methods for activating “stimulator of interferon gene”-dependent signalling” (ADURO BIOTECH, INC., priority 2015, dated 2021).
Like-named read-outs stand apart in the source and are kept apart here.

Assays:
[1] = molecular target: T1, HAQ allele hSTING (STING AA140-379) (Homo sapiens, UniProt Q86WV6, G230A/H232R/R293Q); assay: DSF Tm shift with purified hSTING HAQ allele protein; type: binding; conditions: 1 mg/mL purified STING AA140-379, ligand 1 mM
T1 construct: DNA encoding amino acids 140-379 (amino acid numbering corresponding to Swiss Prot Q86WV6); 6xHIS (N, cleaved yes); SUMO (N, cleaved yes); made in house; host or cells: E. coli Rosetta2 (DE3)
T1 sequence (Q86WV6 140-379 G230A/H232R/R293Q): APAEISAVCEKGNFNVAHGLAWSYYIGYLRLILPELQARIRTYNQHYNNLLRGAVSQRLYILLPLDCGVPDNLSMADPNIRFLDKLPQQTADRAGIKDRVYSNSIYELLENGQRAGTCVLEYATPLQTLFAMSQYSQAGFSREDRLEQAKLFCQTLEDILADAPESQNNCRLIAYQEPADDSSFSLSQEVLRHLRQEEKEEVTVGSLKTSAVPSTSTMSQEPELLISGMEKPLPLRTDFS

[2] = system: hPBMCs homozygous for the wild type (WT) STING allele; assay: IFN-β transcript induction in hPBMCs, STING WT/WT donor; type: cell-based, human; conditions: hPBMC STING WT/WT, 10 μM, 2 hours
[3] = system: human STING signaling in THP1 cells (HAQ allele); assay: THP1-Dual IRF-3 inducible luciferase reporter assay; type: cell-based
[4] = molecular target: T2, REF allele hSTING (STING AA140-379) (Homo sapiens, UniProt Q86WV6); assay: DSF Tm shift with purified hSTING REF allele protein; type: binding
T2 construct: DNA encoding amino acids 140-379 (amino acid numbering corresponding to Swiss Prot Q86WV6); 6xHIS (N, cleaved yes); SUMO (N, cleaved yes); made in house; host or cells: E. coli Rosetta2 (DE3)
T2 sequence (Q86WV6 140-379): as the sequence (Q86WV6 140-379 G230A/H232R/R293Q) above, with A91G, R93H, Q154R counted along it

[5] = system: serum TNF-α, IL-6, MCP-1 and IFN-γ; assay: Serum pro-inflammatory cytokines after intra-tumoral injection, B16.SIY model (CBA)
[6] = system: SIY tumor antigen specific CD8+ T cells; assay: SIY+ CD8+ T cells in splenocytes, B16.SIY model, pentamer FACS; type: in vivo, mouse
Experimental: (§1) Tumors were measured twice weekly. Mice were euthanized on day 7 post IT injection and spleens were harvested and splenocytes prepared. […] Stained cells were analyzed using FACS Versa cytometer with FACSDiva software (BD Biosciences). Data analysis was conducted with FlowJo software (Tree Star). […] IFN-γ ELISPOT plates were developed and quantified using a CTL plate reader and ImmunoSpot software.

[7] = system: hPBMCs homozygous for the HAQ STING allele; assay: IFN-β transcript induction in hPBMCs, STING HAQ/HAQ donor; type: cell-based, human; conditions: hPBMC STING HAQ/HAQ, 10 μM, 2 hours
B16.SIY melanoma = B16.SIY melanoma model, single intra-tumoral injection, tumor volume; type: in vivo, mouse; conditions: 100 μg dose, single IT injection
Experimental: Tumors were measured twice weekly.
as §1

[8] = system: hPBMCs homozygous for the REF (R232H) STING allele; assay: IFN-β transcript induction in hPBMCs, STING REF/REF donor; type: cell-based, human; conditions: hPBMC STING REF/REF, 10 μM, 2 hours
[9] = molecular target: T3, wild type hSTING (STING AA140-379) (Homo sapiens, UniProt Q86WV6, H232R); assay: DSF Tm shift with purified hSTING WT protein; type: binding; conditions: 1 mg/mL purified STING AA140-379, ligand 1 mM
T3 construct: DNA encoding amino acids 140-379 (amino acid numbering corresponding to Swiss Prot Q86WV6); 6xHIS (N, cleaved yes); SUMO (N, cleaved yes); made in house; host or cells: E. coli Rosetta2 (DE3)
T3 sequence (Q86WV6 140-379 H232R): as the sequence (Q86WV6 140-379 G230A/H232R/R293Q) above, with A91G, Q154R counted along it

Compound: Nc1ncnc2c1ncn2[C@@H]1O[C@@H]2CO[P@@](=O)(S)O[C@@H]3[C@@H](F)[C@@H](CO[P@@](=O)(S)O[C@H]2[C@H]1F)O[C@H]3n1cnc2c(N)ncnc21 [Compound 10, dithio-[RP, RP]-cyclic-[3′βF-A(2′,5′)p-2′F-A(3′,5′)p]]
- hSTING Tm Shift HAQ [1]: 20.6 °C
- Relative Expression of IFN-β transcript compared with di-OH reference, in words [2]: higher levels of IFN-β transcripts than the di-OH reference compound 2′3′-RR-(A)(A)
- EC50 ([3]; Homo sapiens, THP-1, THP1 cells (HAQ allele), PB buffer containing 10 μg/mL digitonin, read-out: EC50 +digitonin): 271 nM
- EC50 ([3]; THP1 cells (HAQ allele), without digitonin, read-out: EC50 No digitonin): 4600 nM
- Activity in THP1 assay without digitonin relative to di-OH reference compound, in words ([3]; without digitonin): improved activity relative to the di-OH reference compound 2′3′-RR-(A)(A)
- EC50 improvement over 2′3′-RR-(A)(A) ([3]; without digitonin): 8 fold
- hSTING Tm Shift REF ([4]; 1 mg/mL purified STING AA140-379, ligand 1 mM): 6.4 °C
- Tm shift compared with reference compound, in words ([4]; hSTING REF allele): Tm shift less than the 2′3′-RR-(A)(A)
- Serum concentrations of pro-inflammatory cytokines (TNF-α, IL-6, MCP-1, IFN-γ) versus 2′3′-RR-(A)(A) ([5]; 1 μg dose, six hours post IT injection): comparable
- Safety profile as compared to reference compound 2′3′-RR-(A)(A) ([5]; from systemic serum cytokines): comparable safety profile
- SIY+ CD8+ T cell response versus 2′3′-RR-(A)(A) ([6]; 1 μg dose, FACS): comparable responses at the 1 μg dose to 2′3′-RR-(A)(A)
- Frequency of SIY+ CD8+ T cells in splenocytes versus HBSS control ([6]; FACS pentamer staining, day 7 post IT injection): significantly higher frequencies of SIY^+ CD8^+ T cells than HBSS control
- Relative Expression of IFN-β transcript compared with di-OH reference, in words [7]: higher levels of IFN-β transcripts than the di-OH reference compound 2′3′-RR-(A)(A)
- Tumor inhibition (B16.SIY melanoma): complete tumor inhibition
- Relative Expression of IFN-β transcript compared with di-OH reference, in words [8]: higher levels of IFN-β transcripts than the di-OH reference compound 2′3′-RR-(A)(A)
- hSTING Tm Shift WT [9]: 11.8 °C
